Data reported in ChEMBL document CHEMBL1201862, “PubChem BioAssay data set” (2004).
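Interpolation was linear, between the two tested concentrations surrounding the appropriate level; five concentrations were tested over 48 hours in 96-well plates. Abbreviation: GI50, concentration required for 50% inhibition of growth.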 Calls of active or inactive are those of the source. Cut-off read from the data, not from the text of the source: active = GI50 up to about 1.1 µM and inactive = higher.

Assays:
Assay in all cases: NCI-60 cell line screen, 48 h
NCI-H522 = system: NCI-H522
HL-60 = system: HL-60
COLO 205 = system: COLO 205
CCRF-CEM = system: CCRF-CEM
T47D = system: T47D
SN12C = system: SN12C
HT-29 = system: HT-29
SNB-19 = system: SNB-19
RXF 393 = system: RXF 393
Hs-578T = system: Hs-578T
UO-31 = system: UO-31
OVCAR-5 = system: OVCAR-5
A549 = system: A549
NCI-H460 = system: NCI-H460
SK-MEL-2 = system: SK-MEL-2
K562 = system: K562
RPMI-8226 = system: RPMI-8226
MCF7 = system: MCF7
BT-549 = system: BT-549
HOP-62 = system: HOP-62

Row | SMILES | GI50 (NCI-H522) | GI50 (HL-60) | GI50 (COLO 205) | GI50 (CCRF-CEM) | GI50 (T47D) | GI50 (SN12C) | GI50 (HT-29) | GI50 (SNB-19) | GI50 (RXF 393) | GI50 (Hs-578T) | GI50 (UO-31) | GI50 (OVCAR-5) | GI50 (A549) | GI50 (NCI-H460) | GI50 (SK-MEL-2) | GI50 (K562) | GI50 (RPMI-8226) | GI50 (MCF7) | GI50 (BT-549) | GI50 (HOP-62)
1 | COc1ccc(OC)c2c1C(=O)C(Cl)=C(Cl)C2=O | 2.04 µM (inactive) | 44.5 µM (inactive) | 1.56 µM (inactive) | 14.6 µM (inactive) | 3.17 µM (inactive) | 10.7 µM (inactive) | 4.18 µM (inactive) | > 46 µM (inactive) | 1.85 µM (inactive) | 2.65 µM (inactive) | 2.44 µM (inactive) | 15.7 µM (inactive) | 22.3 µM (inactive) | 19.8 µM (inactive) | 3.06 µM (inactive) | > 22.2 µM (inactive) | 3.02 µM (inactive) | 2.6 µM (inactive) |  | 
2 | Cc1ccc(C(CC(=O)C(C)(C)CN2CCCCC2)SCCS(=O)(=O)O)cc1 (stereo not given) | 25.8 µM (inactive) |  | 18.8 µM (inactive) | 19.3 µM (inactive) |  | 25.3 µM (inactive) | 24 µM (inactive) | 57.4 µM (inactive) | 11.8 µM (inactive) | 30.7 µM (inactive) | 25.2 µM (inactive) | 20.9 µM (inactive) | 36.1 µM (inactive) | 42.3 µM (inactive) | 12.5 µM (inactive) | 11.6 µM (inactive) | 22.1 µM (inactive) | 21.6 µM (inactive) | 74.6 µM (inactive) | 36.6 µM (inactive)
3 | O=C1/C(=C/C=C/c2ccccc2)N=C(c2ccccc2)N1C1Nc2cc3c(cc2S1)NC(N1C(=O)/C(=C/C=C/c2ccccc2)N=C1c1ccccc1)S3 (stereo not given) | 10.3 µM (inactive) | 29.1 µM (inactive) |  | 43.9 µM (inactive) | 30.3 µM (inactive) |  | 23.3 µM (inactive) |  | 33.8 µM (inactive) | 10.5 µM (inactive) | 28.1 µM (inactive) | > 100 µM (inactive) |  | 15.8 µM (inactive) | > 100 µM (inactive) | 0.311 µM (active) | 13.2 µM (inactive) | 29.9 µM (inactive) |  | > 100 µM (inactive)
4 | Cc1ccc(/N=N/c2c(-c3ccccc3)nn(C(=O)CC(=O)Nc3ccc(Cl)cc3)c2-c2ccccc2)cc1 | 37.8 µM (inactive) | 32.4 µM (inactive) | 59.3 µM (inactive) | 18.6 µM (inactive) |  | > 100 µM (inactive) | 65.3 µM (inactive) | 49.7 µM (inactive) | 28.4 µM (inactive) |  | 27.7 µM (inactive) | 48.6 µM (inactive) | 78.9 µM (inactive) | > 100 µM (inactive) | 81.8 µM (inactive) | 42.1 µM (inactive) | 18.8 µM (inactive) |  |  | 33.8 µM (inactive)
5 | Cc1cc(C)c(S(=O)(=O)N2CCN(S(=O)(=O)c3c(C)cc(C)cc3C)OCCCCCO2)c(C)c1 | > 100 µM (inactive) | > 100 µM (inactive) | > 100 µM (inactive) | > 100 µM (inactive) |  | > 100 µM (inactive) | > 100 µM (inactive) | > 100 µM (inactive) |  | > 100 µM (inactive) | > 100 µM (inactive) | > 100 µM (inactive) | > 100 µM (inactive) | > 100 µM (inactive) | > 100 µM (inactive) | > 100 µM (inactive) |  | > 100 µM (inactive) | > 100 µM (inactive) | > 100 µM (inactive)
6 | COC(=O)[C@H](C)[C@H]1CC[C@@](C)([C@H]2CC3C(C)(C)[C@H]4CCC(C)=C[C@H]4C[C@@]3(C)O2)OO1 (stereo not given in full) | 1.66 µM (inactive) | 2.05 µM (inactive) | 9.66 µM (inactive) | 4.2 µM (inactive) |  | 11.1 µM (inactive) | 13.5 µM (inactive) | 14.8 µM (inactive) | > 10 µM (inactive) |  | 6.52 µM (inactive) | 13.4 µM (inactive) | 8.24 µM (inactive) | 2.05 µM (inactive) | 15.4 µM (inactive) | 6.21 µM (inactive) | 2.92 µM (inactive) |  |  | 19.3 µM (inactive)
7 | Oc1c(Cl)c(Cl)c(O)c(-c2cnc(-c3ncc(-c4c(O)c(Cl)c(Cl)c(O)c4Cl)s3)s2)c1Cl | 2.1 µM (inactive) | 33.3 µM (inactive) | 28.6 µM (inactive) | 8.53 µM (inactive) | 29.9 µM (inactive) | 27.4 µM (inactive) | 35.6 µM (inactive) | 27.9 µM (inactive) | 18.9 µM (inactive) | 15.2 µM (inactive) | 21.1 µM (inactive) | 15.5 µM (inactive) | 29.6 µM (inactive) | 30.1 µM (inactive) | 18.4 µM (inactive) | 34.1 µM (inactive) |  | 18.2 µM (inactive) |  | 54.2 µM (inactive)
8 | NS(=O)(=O)c1ccc(NC(=O)Cc2nc3ccccc3s2)cc1 | 18.1 µM (inactive) | 19.1 µM (inactive) | 19.5 µM (inactive) | 13.4 µM (inactive) |  | 17.2 µM (inactive) | 18.3 µM (inactive) | 23.5 µM (inactive) | 18.6 µM (inactive) |  | 22.5 µM (inactive) | 20.7 µM (inactive) | 20.6 µM (inactive) | 17.5 µM (inactive) | 14.9 µM (inactive) | 23.6 µM (inactive) | 21.3 µM (inactive) |  |  | 22.3 µM (inactive)
9 | CC1(C)CC2(S(=O)(=O)c3ccccc3)ON1CC2S(=O)(=O)c1ccccc1 (stereo not given) | 29.4 µM (inactive) | 26.4 µM (inactive) | > 100 µM (inactive) | 26.8 µM (inactive) |  | > 100 µM (inactive) | > 100 µM (inactive) | > 100 µM (inactive) | 48.4 µM (inactive) |  | 94.2 µM (inactive) | > 100 µM (inactive) | > 100 µM (inactive) | > 100 µM (inactive) | > 100 µM (inactive) | 47.1 µM (inactive) | 35.7 µM (inactive) |  |  | > 100 µM (inactive)
10 | COCc1cc2c(s1)C(=O)C1=C(C2=O)C2(C=C(Br)C(=O)C(Br)=C2)CCN1 | 2.39 µM (inactive) | 2.36 µM (inactive) | 3.02 µM (inactive) | 3.01 µM (inactive) | 3.06 µM (inactive) | 8.15 µM (inactive) | 3.09 µM (inactive) | 18.3 µM (inactive) | 2.4 µM (inactive) | 9.53 µM (inactive) | 12.8 µM (inactive) | 15.5 µM (inactive) | 6.53 µM (inactive) | 3.58 µM (inactive) | 3.55 µM (inactive) | 2.11 µM (inactive) | 3.25 µM (inactive) | 10.6 µM (inactive) |  | 
11 | CC(C)(C)[Si](C)(C)OCC1OC(n2cnc3c(=O)[nH]cnc32)CC1O (stereo not given) | > 100 µM (inactive) | > 100 µM (inactive) | > 100 µM (inactive) | > 100 µM (inactive) | > 100 µM (inactive) | > 100 µM (inactive) | > 100 µM (inactive) | > 100 µM (inactive) | > 100 µM (inactive) | > 100 µM (inactive) | > 100 µM (inactive) | > 100 µM (inactive) | > 100 µM (inactive) | > 100 µM (inactive) | > 100 µM (inactive) | > 100 µM (inactive) | > 100 µM (inactive) | > 100 µM (inactive) |  | > 100 µM (inactive)
12 | O=c1c2ccccc2c(=O)c2c1cc(Cl)c1[nH]c3c([nH]c12)c(Cl)cc1c(=O)c2ccccc2c(=O)c13 | > 100 µM (inactive) | > 100 µM (inactive) | > 100 µM (inactive) | > 100 µM (inactive) |  | > 100 µM (inactive) | > 100 µM (inactive) | > 100 µM (inactive) | > 100 µM (inactive) |  | > 100 µM (inactive) | > 100 µM (inactive) | > 100 µM (inactive) | > 100 µM (inactive) | > 100 µM (inactive) | > 100 µM (inactive) | > 100 µM (inactive) |  |  | > 100 µM (inactive)
13 | CCOc1ccc(/N=C\c2ccc3cc(C)ccc3n2)cc1 | > 100 µM (inactive) | 19.5 µM (inactive) | > 100 µM (inactive) | 22.5 µM (inactive) |  | > 100 µM (inactive) | 34.6 µM (inactive) | 49 µM (inactive) | 91 µM (inactive) |  | 31 µM (inactive) | > 100 µM (inactive) | > 100 µM (inactive) | 69.3 µM (inactive) | 45.1 µM (inactive) | 25.4 µM (inactive) | 22.8 µM (inactive) |  |  | > 100 µM (inactive)
14 | Nc1c(Cl)c([N+](=O)[O-])cc2c1OCCCCO2 | 2.32 µM (inactive) | > 100 µM (inactive) | > 100 µM (inactive) | 79.6 µM (inactive) | > 100 µM (inactive) | > 100 µM (inactive) | > 100 µM (inactive) | > 10 µM (inactive) | > 100 µM (inactive) | > 100 µM (inactive) | > 100 µM (inactive) | > 100 µM (inactive) | > 100 µM (inactive) | > 100 µM (inactive) | > 100 µM (inactive) | > 100 µM (inactive) | > 100 µM (inactive) | > 100 µM (inactive) |  | > 100 µM (inactive)
15 | CC(=O)C(CN(C)Cc1ccccc1)C(c1ccccc1)c1c(O)c2ccccc2oc1=O (stereo not given) | 80.4 µM (inactive) | 52.5 µM (inactive) | > 100 µM (inactive) | > 100 µM (inactive) |  | > 100 µM (inactive) | > 100 µM (inactive) | 11 µM (inactive) | > 100 µM (inactive) |  | 16.6 µM (inactive) | > 100 µM (inactive) | > 100 µM (inactive) | > 100 µM (inactive) | > 100 µM (inactive) | > 100 µM (inactive) | 58.6 µM (inactive) |  |  | > 100 µM (inactive)
16 | CC(=O)OC1CC2C(C)(C)OC(=O)CC(OC(C)=O)[C@]2(C)C2CCC3(C)C(=CCC3[C@H]3COC(=O)C3)[C@]12C (stereo not given in full) | 83.4 µM (inactive) | 50.1 µM (inactive) | > 100 µM (inactive) | 23.5 µM (inactive) |  | > 100 µM (inactive) | 60.5 µM (inactive) | > 100 µM (inactive) | > 100 µM (inactive) |  | > 100 µM (inactive) | > 100 µM (inactive) | 55.6 µM (inactive) | > 100 µM (inactive) | 72.3 µM (inactive) | 43.9 µM (inactive) | 47.1 µM (inactive) |  |  | > 100 µM (inactive)
